Values joined by “and” are separate entries in the source; they are usually repeats but may differ in a detail not shown here. Identical values can stand only once. “Also recorded” adds a separate entry of the source. Each block holds one compound with its values, some of them ahead of it.
Assays:
HYB 273-1 = assay: competitive ELISA (immunoassay) for BAM with monoclonal antibody on hapten-coated microtitre plates; assay type: binding, mice
Description: The cross reactivity of an assay is a measure of its specificity for the analyte relative to similar or related compounds. It is useful in assessing its accuracy in crude samples with several potential haptens. Standard curves based on the 4-parameter-logistic equation (eq 1) were generated for a series of analytes (Table 3) in the range 100 to 0 mg/L (10-fold titrations). The IC50 value (C*) for each analyte was then compared with the IC50 of BAM (C) in equation 3. CR = ((C)/(C*)) × 100% [formula] • CR: cross-reactivity [%] • C: value of IC50 for BAM [µg/L] • C*: value of IC50 for cross-reacting analyte [µg/L]
Standards were used to generate comparative standard curves. The standards were added to hapten-coated plates followed by a known amount of antibody, such as HYB 273-1 in buffer. The plate was incubated for 1 hour, washed, and incubated with RαM^HRP, an enzyme label and incubated for 1 hour. After extensive washing, the enzyme substrate TMB-Plus was added. The colour development was stopped using acid and the absorbance read at 450 nm.
The standards were used to generate a semi-log graph based on the 4-parameter-logistic method (Rodbard, 1974: equation 1). Y = ((A-D))/([1+(((X)/(C)))^B]) + D [formula] • X: concentration of analyte (µg/L). • Y: absorbance at 450 nm (A450). • A: maximum absorbance (upper asymptote). • D: minimum absorbance (lower asymptote). • C: midpoint between A and D. Extrapolation to x-axis yields the value of IC50 (µg/L). • B: slope for the transition between A and D
The signals were normalised according to equation 2 %(B)/(B0) = (A-Axs)/(A0 -Axs) × 100 [formula] • B : concentration of bound antibody and • B0 : concentration of bound antibody in the absence of analyte.
On the plot, 100 % corresponds to the absorption of the zero control (A0: 0 µg/L) and 0 % corresponds to the absorption of an excess control (Axs: 100 µg/L). The normalised signals were plotted vs. BAM concentration and the four-parameter-logistic equation (eq 1) was fitted to the experimental points.
i) Passive adsorption: A MaxiSorp™ microtitre plate was filled by a stationary dispensor with 200 µL/well BAM-OA (16.7 ng/mL) in coating buffer. After coating over night at 4°C the plate was washed 4 times with de-ionised water and dried 30 min at 37°C. The plate was either used immediately or sealed with tape lid and stored at room temperature in the dark until use.
A PolySorp™microtitre plate was filled by a stationary dispensor with 200 µL/well BAM-OA-AQ (50 ng/mL) in 0.1 × PBS. After being exposed to uv-light (300-400 nm) at 34°C for 30 min, the plate was washed 4 times with de-ionised water and dried 30 min at 37°C. […]
Standards (in Milli-Q® water) and samples (150 µL) were added to the hapten-coated plate followed by the addition of 50 µL antibody (HYB 273-1) diluted in 10 × PBST (66.7 ng/mL). […] The colour development was stopped after 10 minutes by adding 50 µL/well 1 M H2SO4 and the absorbance was read at 450 nm. […] Y = ((A-D))/([1+(((X)/(C)))^B]) + D [formula] • X: concentration of analyte (µg/L). • Y: absorbance at 450 nm (A450). • A: maximum absorbance (upper asymptote). • D: minimum absorbance (lower asymptote). • C: midpoint between A and D. Extrapolation to x-axis yields the value of IC50 (µg/L). • B: slope for the transition between A and D
These calculations were executed automatically by the software package SOFTmax® PRO Version 2.2 upon reading the microtitre plates. […]

[1] = test system: Balb/c×CF1 F1-hybrid mice; assay: immunisation of mice with hapten-polymer carrier complex and generation of monoclonal antibodies; assay type: in vivo; settings: hapten bound to polymer carrier (ovalbumin)
Description: Live mice were primed for immunisation by an intraperitoneal injection of live BCG-vaccine one month before immunisation. The antigen (hapten-OA complex), once adsorbed onto Al(OH)3, was injected intraperitonally and test bleedings were collected. When antibody titre's exceeded 1:2000, mice were considered ready for fusion and the method described by Köhler and Milstein (1975) was employed with minor modifications. Monoclonal antibodies were selected on basis of titre, affinity and specificity. Selected clones were recloned until monoclonality and stored frozen at -80 °C.
Ten to twelve weeks old female Balb/c×CF1 F1-hybrid mice were used for immunisation. 5 One month before immunisation they were primed with 0.2 mL live BCG-vaccine intraperitonally. The antigen ([…] carrier/immunogen) was absorbed onto Al(OH)3 as an adjuvant. The total volume of vaccine per immunisation was 200 µL, containing […] of antigen and […] of adjuvant. The antigen was injected intraperitonally with 2-weeks intervals. Test bleedings were collected 10 days after immunisation and assayed in ELISA.
When antibody titre's exceeded 1:2000, mice were regarded ready for fusion. The procedure as described by Köhler and Milstein (1975) was employed with minor modifications. Monoclonal antibodies were selected on basis of titre, affinity and specificity. […]

Compound: NC(=O)c1ccc(Cl)cc1Cl [2,4-dichlorobenzamide]
cross-reactivity (HYB 273-1; IC50 of BAM divided by IC50 of analyte x 100, analytes assayed up to 100 mg/L, antibody HYB 273-1): 3.8%

IC50 (HYB 273-1; covalently immobilised (photocoupled) plates, PolySorp, BAM-OA-AQ, Figure 3A): 0.189 ng/mL and 0.19 ng/mL | IC50 (HYB 273-1; passively adsorbed plates, MaxiSorp, BAM-OA, Figure 3B): 0.144 ng/mL and 0.14 ng/mL
Compound: NC(=O)c1c(Cl)cccc1Cl [BAM, 2,6-dichlorobenzamide]
DL15 (detection limit, analyte concentration giving a 15 % decrease in maximum signal) (HYB 273-1; photo catalysed covalent immobilisation, Figure 3A): 0.02 µg/L | DL15 (detection limit, analyte concentration giving a 15 % decrease in maximum signal) (HYB 273-1; surfaces immobilised by passive adsorption, Figure 3B): 0.045 µg/L

Compound: N-(5-carboxypentyl)-2,4-dichloro-3-amido aniline [EQ-0031]
immunoresponse on immunisation [1]: good responses were generated and several clones were produced; also recorded: generated good immunoresponse
